# Where no end group is shown, it is not given here. The star is where a group is joined. Octanoyl = CCCCCCCC(=O)*
# Columns and labels:
# MDA-MB-468 cells = assay: 3D/2D cell growth assay (cell number, Hoechst); assay type: cell-based, human; settings: for cell growth in the presence of serum: 0.05-5 μM MK2206, 0.1-10 μM BKM120; for growth of MDA-MB-468 cells: 60 nM KT5720, 1.4 μM SQ22536, 15 μM cAMPs-RP; for forskolin-stimulated cell growth: 10 μM forskolin
# Experimental: (§1) Human BC Cells. Human breast cancer cell lines, MCF7, T47D, ZR75, MDA-MB-231, MDA-MB-468, SKBR3, Hs578T and HEK293T, DU4475 and MDA-MB-157 were purchased from ATCC, USA. Human 4-OH tamoxifen resistant breast cancer cells (LCC2), RKO, RKO-T29, RKO-A19, HCT116, HCT116-HWT, HCT116-HMUT were cultured using methods were performed as described previously (Yun et al., Science 325(5947):1555-9 (2009)). MCF7, MDA-MB-231, MDA-MB-468, MDA-MB-157, Hs578T, HEK293T were grown in DMEM (Invitrogen), supplemented with 10% fetal calf serum (FCS) (Invitrogen), 100U/ml penicillin/streptomycin and 1% sodium pyruvate. ZR75, T47D, SKBR3 and DU4475 were grown in RPMI, supplemented with 10% FCS, 100 U/ml penicillin/streptomycin and 2 mM L-Glutamine (ThermoFisher Scientific). LCC2 were grown in phenol red-free DMEM, supplemented with 10% charcoal stripped serum (CCS; ThermoFisher Scientific), 100 U/ml penicillin/streptomycin and 1% sodium pyruvate. All cell lines were grown at 37° C. with 5% CO2 in a humidified environment. Mycoplasma detection of all cell lines were tested and negative results were observed.
# (§2) Cell Growth and Proliferation Assays. 3D culture of a panel of breast cancer and colon cancer cells were seeded at a density of 3,000 cells per well in media containing 30% growth-factor-reduced matrigel or 5 mg/ml Collagen in optical-bottom 96-well plates. Patient-derived breast tumors were first dissociated into single cell suspensions and seeded at a density of 32,000 cells per well in media containing 30% matrigel. […] At the end of the experimental time point, cells were fixed in 100% methanol. The total number of cells, or the number of dead or proliferating cells was assessed using Hoechst, EarlyTox Dead Assay Kit (Molecular Devices), or Click-IT EdU Kit (ThermoFisher Scientific), respectively, and analyzed according to the manufacturer's protocols. Cells were then imaged with >95% well coverage (magnification of 10× with 3×3 tiled images) per field using confocal microscopy. The number of nuclei/Ethidium Homodimer-III+/EdU+ cells were counted using Imaris software (Bitplane).
# MDA-MB-231 cells = assay: 3D/2D cell growth assay (cell number, Hoechst); assay type: cell-based, human; settings: for cell growth in the presence of serum: 0.05-5 μM MK2206, 0.1-10 μM BKM120; for forskolin-stimulated cell growth: 10 μM forskolin, 3D
# MCF7 cells = assay: 3D/2D cell growth assay (cell number, Hoechst); assay type: cell-based, human; settings: for serum-stimulated growth (cell number): 60 nM KT5720, 1.4 μM SQ22536, 15 μM cAMPs-RP
# Experimental: as §1, §2
# [1] = test system: ERK activity in EKAR-transfected MCF7 cells; assay: ERK activity assay (EKAR FRET reporter); assay type: cell-based, human; settings: 10% serum; 3D; time-lapse confocal
# Experimental: ERK Activity Assay: The EKAR FRET-based system was used to monitor ERK activity. Briefly, breast cancer cells were co-transfected with pPBJ-puro-FRET3-EKAR-nls and the pCMV-hyPBase transposase vector, and stably transfected cells selected using FACS for EYFP and ECFP-positive cells. Cells were then cultured in 3D and serum-starved overnight. Prior live cell time-lapse confocal imaging, medium was replaced with 100 pM unacylated ghrelin and 10% serum. Images were acquired following FRET and analyzed using Imaris software. Data normalized to ECFP signal.
# [2] = test system: MCF7, MDA-MB-468 and MDA-MB-231 cells; assay: Cy3-tagged UAG binding assay in 3D cultures; design: species or system human; settings: 1 μM Cy3-tagged UAG with 10% serum; live confocal imaging
# Experimental: Binding Assays. Cy3-tagged UAG (Pepmic Co, LtD) binding assays were performed in 3D cultures of breast cancer cells. MCF7, […] and MDA-MB231 cells were seeded at a density of 3,000 cells per well in Matrigel in optical-bottom 96-well plates. Cells were serum-starved overnight. Hoechst nuclear stain was added prior to the live cell imaging. 1 μM Cy3-tagged UAG with 10% serum was then added and time-lapse confocal imaging was performed to examine the localization of peptide binding.
# [3] = test system: panel of breast cancer cell lines; assay: 3D cell growth assay in a panel of breast cancer cell lines; assay type: cell-based, human; settings: 100 pM
# Experimental: as §1, with “All cell lines were grown at 37° C. with 5% CO2 in a humidified environment. Mycoplasma detection of all cell lines were tested and negative results were observed.” left out
# Cell Growth and Proliferation Assays. […] The total number of cells, or the number of dead or proliferating cells was assessed using Hoechst, EarlyTox Dead Assay Kit (Molecular Devices), or Click-IT EdU Kit (ThermoFisher Scientific), respectively, and analyzed according to the manufacturer's protocols. […] The number of nuclei/Ethidium Homodimer-III+/EdU+ cells were counted using Imaris software (Bitplane).
# [4] = Allas et al. 2016; cited from earlier work
# [5] = test system: patient-derived breast cancer cells; assay: 3D growth of patient-derived breast cancer cells; assay type: cell-based, human
# Source text: Human BC Tissues and Preclinical Patient Derived Xenograft Models. Patient-derived breast tumors (PDX, (Zhang, et al., Cancer Res 15:4885-97 (2013)) and estrogen receptor positive (ER^+) breast tumors were used under IRB-approved protocols (WCM 1410015560 and 1603017108). All patients provided written informed consent. Cells were isolated and maintained in DMEM, supplemented with 10% fetal calf serum (FCS), 100U/ml penicillin/streptomycin and 1% sodium pyruvate (ThermoFisher Scientific). Cells were grown at 37° C. in a humidified atmosphere with 5% CO2. See Method Details for cell growth and proliferation work specific procedures.
# as §2
# J110 allografts = assay: Syngeneic allograft in FVB/N mice; assay type: in vivo, mouse; settings: AZP531 200 μg/kg s.c.; 7 days; FVB mice
# Experimental: (§3) Animal Experimental Model. All animal experiments were performed in Monash Animal Research Platform at Hudson Institute for Medical Research and Research Animal Resource Center at Weill Cornell Medicine. Experimental procedures were in accordance with guidelines for Animal Care and Use, approved by Monash University Animal Ethics Committee (MMCA2014/20) and Weill Cornell Medicine IACUC Protocol (REQ00016929). Athymic Balb/c nude, FVB/N (Animal Resources Centre, Australia) and NSG (NOD Scid gamma; NOD.CgPrkdcscidIl2rgtmlwjl/SzJ) mice (The Jackson laboratory and Monash Breeding Colony platform) were used for this study. All mouse procedures were performed with 6-8 weeks old female mice and treatments administered via subcutaneous injection. See additional details included herein for specific in vivo experimental procedures.
# A syngeneic breast cancer mouse model was created in female FVB/N mice. 1.25×10^5 J110 cells were injected into the mammary fat pad of 6-week old FVB (Immunocompetent) mice. […]
# Measurement of Apoptotic Cells from Xenograft/Allograft Studies. MCF7, ZR75 and J110 tumor sections post treatment with 100 μg/kg or 200 μg/kg of unacylated ghrelin were assessed using Hoechst nuclear stain and confocal microscopy. Quantification of cells with apoptotic nuclei was performed using Image J.
# MDA-MB-468 xenografts = assay: Xenograft in NSG mice; assay type: in vivo, mouse; settings: 200 μg/kg s.c., 28 days
# Experimental: as §3
# Additional studies were also performed in NSG mice. MDA-MB-468 (1×10^6) were injected into the mammary fat pad of 6-week old NSG (immunodeficient) mice. Once the tumor reached a volume of 150 mm^3, the mice were randomized to receive saline (vehicle control) or AZP531 via subcutaneous injection. After 28 days of treatment, the mice were humanely sacrificed by cervical dislocation.
molecule,measurement,setting,value
Nc1cc(C(F)(F)F)c(-c2cc(N3CCOCC3)nc(N3CCOCC3)n2)cn1 [BKM120],cell growth in the presence of serum,MDA-MB-468 cells; serum,inhibited
same,cell growth in the presence of serum,MDA-MB-231 cells,inhibited
CCCCCCOC(=O)[C@]1(O)C[C@@H]2O[C@@]1(C)n1c3ccccc3c3c4c(c5c6ccccc6n2c5c31)C(=O)NC4 [KT5720],serum-stimulated growth (cell number),MCF7 cells; serum,significant reduction in cell number
same,growth of MDA-MB-468 cells,MDA-MB-468 cells,suppress the growth
NC1(c2ccc(-c3nc4ccn5c(=O)[nH]nc5c4cc3-c3ccccc3)cc2)CCC1 [MK2206],forskolin-stimulated cell growth,MDA-MB-468 cells; 3D,inhibit
same,cell growth in the presence of serum,MDA-MB-468 cells; serum,inhibited
same,forskolin-stimulated cell growth,MDA-MB-231 cells,inhibit
same,cell growth in the presence of serum,MDA-MB-231 cells,inhibited
Nc1ncnc2c1ncn2C1CCCO1 (stereo not shown) [SQ22536],serum-stimulated growth (cell number),MCF7 cells; serum,significant reduction in cell number
same,growth of MDA-MB-468 cells,MDA-MB-468 cells,suppress the growth
N#CC(=C(/N)Sc1ccccc1N)/C(C#N)=C(\N)Sc1ccccc1N [U0126],serum-stimulated EKAR (ERK) activity,[1],inhibited
same,forskolin-stimulated cell growth,"MCF7 cells; 10 μM forskolin, 3D",significant reduction
same,forskolin-stimulated cell growth,MDA-MB-468 cells; 3D,significant reduction
same,forskolin-stimulated cell growth,MDA-MB-231 cells,significant reduction
Nc1ncnc2c1ncn2[C@@H]1O[C@@H]2CO[P@@](O)(=S)O[C@H]2[C@H]1O [cAMPS-RP],serum-stimulated growth (cell number),MCF7 cells; serum,significant reduction in cell number
same,growth of MDA-MB-468 cells,MDA-MB-468 cells,suppress the growth
"Cy3-labeled unacylated ghrelin: Cy3-tagged UAG (Pepmic Co, LtD) used for binding assays (GSSFLSPEHQRVQQRKESKKPPAKLQP; also: Cy3 label, position not given here; UniProt Q9UBU3 24-50, looked up)",binding to responsive and non-responsive cells,[2],Binding
GSS(n-octanoyl)FLSPEHQRVQQRKESKKPPAKLQPR (GSS(Octanoyl)FLSPEHQRVQQRKESKKPPAKLQPR) [acyl ghrelin],breast cancer cell growth in serum-stimulated conditions (FIG. 15G),[3],inhibited breast cancer cell growth
"SPEHQRVQ (also: cyclic, ring type not given here) [AZP531]",pharmacokinetic properties relative to unacylated ghrelin,[4],better pharmacokinetic properties than unacylated ghrelin
same,safety profile,[4],established safety profile
same,serum-stimulated growth of patient-derived TNBC cells,[5]; dose-response,dose-dependent inhibition
same,potency compared to doxorubicin,"[5]; patient-derived TNBC cells, serum",greater potency than doxorubicin
same,extent of cell number reduction,"[5]; patient-derived TNBC cells, serum, unlike doxorubicin",did not reduce cell number beyond that which was stimulated by serum
same,tumor cell growth (tumor volume),J110 allografts,suppression of cell growth
same,tumor cell growth (tumor volume),MDA-MB-468 xenografts,suppression of cell growth
same,potency compared to doxorubicin,"MCF7 cells; 3D, serum",greater potency than doxorubicin
same,serum-stimulated growth of cells,"MCF7 cells; 3D, serum, dose-response",dose-dependent inhibition
same,extent of cell number reduction,"MCF7 cells; 3D, serum, unlike doxorubicin",did not reduce cell number beyond that which was stimulated by serum
same,potency compared to doxorubicin,"MDA-MB-468 cells; 3D, serum",greater potency than doxorubicin
same,serum-stimulated growth of cells,"MDA-MB-468 cells; 3D, serum, dose-response",dose-dependent inhibition
same,extent of cell number reduction,"MDA-MB-468 cells; 3D, serum, unlike doxorubicin",did not reduce cell number beyond that which was stimulated by serum
